Assay results reported in patent US4190672A, “Method and compositions of treating Parkinsonisms with levodopa and 3',4'-dihydroxy-2-methylisopropiophenone” (priority 1978, dated 1980).
Like-named read-outs stand apart in the source and are kept apart here.

Columns and labels:
[1] = tested on: COMT; test: Effect of dose of DHMPP on plasma and brain OMD, levodopa and dopamine after levodopa treatment; assay type: in vivo, Male Sprague-Dawley rats
Procedure: (§1) Male Sprague-Dawley rats weighing 200-300 g are fasted for 17 hours prior to the experiments. They are kept for at least two days on a day-light, night-dark cycle, and the experiments are conducted between 0900 and 1400 hours on the day following the fast. All injections are given intraperitoneally, and all drugs are given as a suspension in 1% methyl ceullulose.
(§2) 2. Effect of dose of DHMPP: Absolute and levodopa control rats receive the same treatment as described above. Experimental rats were pretreated with DHMPP (50, 100, 150, 200 or 250 mg/kg) 30 min before receiving the injection of levodopa, 250 mg/kg. All animals are decapitated 90 min after receiving levodopa. Blood and brain are collected.
3. Analytical procedures: Brains are chilled on ice, homogenized in 3 volumes ice-cold 0.4 M perchloric acid containing 0.025% ascorbic acid, and centrifuged at 15,000 rpm for 20 min. The supernatants are collected and the above procedure is repeated on the residue. The combined supernatants are stored at -20° C. Blood samples are collected in heparinized tubes immediately after decapitation, chilled, and centrifuged, and the plasma is pipetted off. Plasma proteins are precipitated in 4 volumes ice-cold 0.4 M perchloric acid solution and centrifuged at 10,000 rpm for 15 min. Protein-free supernatants are decanted and stored at -20° C. All samples are chromatographed within two days of the experiment.
Column chromatography of the sample extracts is carried out on a strong cation resin (Bio Rad AG 50-X8) according to the method of Prased, A. L. N., et al., Trans. Am. Soc. Neurochem. 4:105 (1973) Homovanillic acid (HVA) remains in the combined effluent and subsequent water wash; these eluates undergo solvent extractions and are assayed by the automated method of Prasad, A. L. N., et al., Biochem. Med. 9:136 (1974). Levodopa and OMD are eluted together and assayed according to the method of Fahn, S., et al., Anal. Biochem. 46:557 (1972). After dopamine is eluted, it is measured by the automated method of Atack, C. V., Brit. J. Pharmacol. All eluates are assayed within 10 days of chromatography; they are stored at -20° C., thawed and mixed thoroughly before assay.

[2] = tested on: COMT; test: Effect of DHMPP with time on plasma and brain levodopa, OMD and dopamine after levodopa administration; assay type: in vivo, Male Sprague-Dawley rats
Procedure: (§3) Male Sprague-Dawley rats weighing 200-300 g are fasted for 17 hours prior to the experiments. They are kept for at least two days on a day-light, night-dark cycle, and the experiments are conducted between 0900 and 1400 hours on the day following the fast. All injections are given intraperitoneally, and all drugs are given as a suspension in 1% methyl ceullulose. 1. Effect of DHMPP with time: Absolute control rats receive no injections. Levodopa controls are given levodopa, 250 mg/kg. […] Blood and brain are collected. […] Analytical procedures: […] The supernatants are collected and the above procedure is repeated on the residue. The combined supernatants are stored at -20° C. Blood samples are collected in heparinized tubes immediately after decapitation, chilled, and centrifuged, and the plasma is pipetted off. Plasma proteins are precipitated in 4 volumes ice-cold 0.4 M perchloric acid solution and centrifuged at 10,000 rpm for 15 min. Protein-free supernatants are decanted and stored at -20° C. […] Am. Soc. Neurochem. 4:105 (1973) Homovanillic acid (HVA) remains in the combined effluent and subsequent water wash; these eluates undergo solvent extractions and are assayed by the automated method of […]., et al., Biochem. […] Levodopa and OMD are eluted together and assayed according to the method of Fahn, S., et al., Anal. Biochem. 46:557 (1972). After dopamine is eluted, it is measured by the automated method of […]., Brit. J. Pharmacol. All eluates are assayed within 10 days of chromatography; they are stored at -20° C., thawed and mixed thoroughly before assay.

[3] = tested on: catechol-O-methyl transferase (COMT); details: cited from earlier work
[4] = crystalline solid; cited from earlier work
[5] = Behavioral responses and deaths in rats; assay type: in vivo, Male Sprague-Dawley rats
Procedure: as §1
1. Effect of DHMPP with time: Absolute control rats receive no injections. Levodopa controls are given levodopa, 250 mg/kg. Experimental animals are pretreated with DHMPP, 250 mg/kg, 30 min before receiving a combined injection of DHMPP and levodopa, each 250 mg/kg. Animals are decapitated at 30 min time intervals between 0 and 120 min after levodopa administration. Blood and brain are collected.
as §2

[6] = Effect of DHMPP with time on plasma and brain levodopa, OMD and dopamine after levodopa administration; assay type: in vivo, Male Sprague-Dawley rats; details: rat, ip, 250 mg/kg
Procedure: as §3

[7] = all doses of DHMPP, 90 min after levodopa
[8] = DHMPP 250 mg/kg pretreatment plus DHMPP and levodopa 250 mg/kg each, i.p.

Compound: CC(C)C(=O)c1ccc(O)c(O)c1 [DHMPP, 3',4'-Dihydroxy-2-methyl-propiophenone]
- inhibition of OMD accumulation in plasma relative to levodopa controls ([1]; DHMPP 100 mg/kg i.p., 90 min after levodopa): completely inhibits
- plasma OMD accumulation ([1]; DHMPP 100 mg/kg or greater i.p., 90 min after levodopa): completely blocked
- plasma levodopa levels ([1]; DHMPP 50-250 mg/kg i.p., 90 min after levodopa 250 mg/kg): not affected
- accumulation of OMD in brain ([1]; DHMPP 100 and 200 mg/kg i.p., 90 min after levodopa): inhibited
- inhibition at 100 mg/kg ([1]; Rattus norvegicus, ip, 1.5 h, DHMPP 100 mg/kg i.p., 90 min after levodopa, read-out: inhibition of OMD accumulation in brain relative to levodopa controls): 80%
- dopamine levels in brain [1, 7]: not significantly altered
- levodopa levels in brain [1, 7]: not significantly altered
- increase in plasma levodopa levels on inhibition of COMT [2, 8]: three-fold
- prevention of measurable accumulation of OMD in plasma [2, 8]: completely prevents measurable accumulation of OMD in plasma
- increase in brain levodopa concentration with COMT inhibition ([2]; DHMPP plus levodopa i.p., 30 min time point): more than two-fold
- increase in brain dopamine level on inhibition of COMT ([2]; DHMPP plus levodopa i.p., at 60 min): more than two-fold
- accumulation of brain OMD on DHMPP treatment ([2]; DHMPP plus levodopa, i.p.): blocked
- levodopa and dopamine concentrations in brain (conclusion) ([2]; animals treated with DHMPP and levodopa): striking enhancement and prolongation of levodopa and dopamine concentrations in the brain
- accumulation of 3-O-methylated derivatives of catechols in plasma and brain (conclusion) ([2]; high dosage, acute levodopa administration): does inhibit the accumulation of 3-O-methylated derivatives of catechols in plasma and brain
- inhibition of COMT (literature) [3]: inhibition of the enzyme catechol-O-methyl transferase (COMT)
- water solubility [4]: water-soluble
- degree of lethargy versus dosage of DHMPP ([5]; DHMPP 50-250 mg/kg i.p.): related to the dosage of DHMPP employed
- motor activity and behavioral responses to DHMPP ([5]; DHMPP i.p., within 10 min of injection): striking reduction in motor activity within 10 min of injection, including prostration, lying on one side, rapid breathing and loss of responsiveness to handling and other stimuli
- piloerection in animals receiving both inhibitor and levodopa ([5]; DHMPP plus levodopa, i.p.): Little piloerection is apparent
- deaths at lower doses ([5]; rat, in vivo): Deaths do not occur
- deaths, dose-response experiment ([5]; rat, in vivo, ip, 250 mg/kg): two of six

Compound: N[C@@H](Cc1ccc(O)c(O)c1)C(=O)O [levodopa, 3-(3,4-dihydroxyphenyl)-L-alanine]
- Tmax ([6]; in vivo, time of peak levodopa in brain): 30 min
- Tmax ([6]; plasma, DHMPP plus levodopa i.p., after levodopa administration, read-out: time of peak plasma levodopa level with inhibition of COMT (converted)): 90 min
- Tmax ([6]; plasma, levodopa 250 mg/kg i.p., alone or with DHMPP, after levodopa injection, read-out: time of maximal plasma levels of levodopa (converted)): 30 min
- OMD accumulation in plasma after levodopa administration ([2]; levodopa 250 mg/kg i.p.): progressively accumulates in plasma
- time course of brain OMD levels ([2]; rat, in vivo): rise slowly for the first 30 min in levodopa and absolute control animals and then increase more rapidly and linearly
- time of maximal dopamine concentration in brain ([2]; rat, in vivo): 30 to 60 min
- brain OMD level ([2]; rat, in vivo, 240 min): 18 nmol/g
- effect of levodopa on lethargic symptoms induced by DHMPP ([5]; levodopa 250 mg/kg i.p. after DHMPP): markedly attenuates all lethargic symptoms induced by DHMPP, but does not abolish them
- behavioral responses to levodopa ([5]; levodopa 250 mg/kg i.p., all rats treated with levodopa): increased locomotor activity, erection of hair (piloerection), abnormal protrusion of the eyeball (exophthalmos) and other signs of sympathetic stimulation
